Earlier results, collected in patent US8968725B2, “Genipin cross-linked fibrin gels” (University of Vermont and State Agricultural College, priority 2010, dated 2015).

Tested on: mice
Conditions: mouse, in vivo, iv

Compound: COC(=O)C1=CO[C@@H](O)[C@H]2C(CO)=CC[C@H]12 [Genipin, Methyl (1R,2R,6S)-2-hydroxy-9-(hydroxymethyl)-3-oxabicyclo[4.3.0]nona-4,8-diene-5-carboxylate]
- LD50: 382 mg/kg
